We go through five molecules from ChEMBL document CHEMBL1914411, “Synthesis of lipophilic dimeric C-7/C-7-linked ciprofloxacin and C-6/C-6-linked levofloxacin derivatives. Versatile in vitro biological evaluations of monomeric and dimeric fluoroquinolone derivatives as potential antitumor, antibacterial or antimycobacterial agents” (Eur J Med Chem, 2011).

In brackets after ≈: the same amount, converted by molar mass. Activity calls are given as the source filed them. The rule behind the calls is not given here. A value given as a limit tells only on which side of the number the result lay.

In one series the test system is PC-3. Kind of series: Antiproliferative activity against human PC3 cells after 120 hrs by MTT asasy. The conditions noted are these: PC-3, 120 h. The series is classed as functional, cell-based.
A further series deals with LoVo. Kind of series: Antiproliferative activity against human LoVo cells after 120 hrs by MTT asasy. The format is functional, cell-based.
The test system of a further series is MCF7. In words: Antiproliferative activity against human MCF7 cells after 120 hrs by MTT asasy. The format is functional, cell-based. The conditions noted are these: MCF7, 120 h.
The subject of series [1] is Staphylococcus aureus. In words: Antimicrobial activity against Staphylococcus aureus CIP 4.83 after 18 to 24 hrs by broth microdilution method. The format is functional.
Series [2] deals with Mycobacterium tuberculosis. Kind of series: Antimycobacterial activity against Mycobacterium tuberculosis H37Rv assessed as growth inhibition at 0.1 uM after 6 days by MTT colorimetric microassay. The series is classed as functional, organism-based.
For another series, the system named is Enterococcus hirae. Kind of series: Antimicrobial activity against Enterococcus hirae CIP 5855 after 18 to 24 hrs by broth microdilution method. The series is classed as functional. On the technique in general: Broth dilution looks for growth in wells or tubes with falling amounts of substance.
The nature of series [3]: Solubility of compound in cell medium at 20 uM at 37 degC after 24 hrs. The series is classed as physicochemical.
In series [4] the test system is Mycobacterium tuberculosis. In words: Antimycobacterial activity against Mycobacterium tuberculosis H37Rv assessed as growth inhibition at 1 uM after 6 days by MTT colorimetric microassay. The series is classed as functional. The conditions noted are these: 144 h, read-out: GI.
The test system of series [5] is Mycobacterium tuberculosis. Kind of series: Antimycobacterial activity against Mycobacterium tuberculosis H37Rv assessed as growth inhibition at 10 uM after 6 days by MTT colorimetric microassay. The format is functional. The conditions noted are these: 144 h, read-out: GI.
For a further series, the system named is Escherichia coli. In words: Antimicrobial activity against Escherichia coli CIP 53126 after 18 to 24 hrs by broth microdilution method. The series is classed as functional.
For the next series, the system named is A549. Kind of series: Antiproliferative activity against human A549 cells after 120 hrs by MTT asasy. Conditions: A549, 120 h. The series is classed as functional, cell-based.
Series [6] relates to Mycobacterium tuberculosis. Kind of series: Antimycobacterial activity against Mycobacterium tuberculosis H37Rv after 6 days by MTT colorimetric microassay. The series is classed as functional, organism-based. The conditions noted are these: 144 h.
Series [7] can be described thus: Antiproliferative activity against human U373MG cells after 120 hrs by MTT asasy. The format is functional, cell-based, U-373MG ATCC. The conditions noted are these: U373 MG.
Another series concerns Pseudomonas aeruginosa. In words: Antimicrobial activity against Pseudomonas aeruginosa CIP 82.118 after 18 to 24 hrs by broth microdilution method. The format is functional.
For series [8], the system named is Staphylococcus aureus. Kind of series: Antimicrobial activity against methicillin-resistant Staphylococcus aureus ATCC 33592 after 18 to 24 hrs by broth microdilution method. The series is classed as functional.
Series [9] has as its system Staphylococcus aureus. In words: Antimicrobial activity against methicillin-resistant Staphylococcus aureus ATCC 33591 after 18 to 24 hrs by broth microdilution method. The format is functional.
In series [10] the test system is Staphylococcus aureus. In words: Ratio of ciprofloxacin MIC to compound MIC for methicillin-resistant Staphylococcus aureus ATCC 33592. The series is classed as functional.
For series [11], the system named is Staphylococcus aureus. In words: Antimicrobial activity against multidrug-resistant Staphylococcus aureus isolate 2 after 18 to 24 hrs by broth microdilution method. The format is functional.
The subject of series [12] is Staphylococcus aureus. In words: Antimicrobial activity against multidrug-resistant Staphylococcus aureus isolate 1 after 18 to 24 hrs by broth microdilution method. The series is classed as functional.
Series [13] has as its system Staphylococcus aureus. Kind of series: Ratio of ciprofloxacin MIC to compound MIC for multidrug-resistant Staphylococcus aureus isolate 2. The series is classed as functional.
Series [14] has as its system Staphylococcus aureus. In words: Ratio of ciprofloxacin MIC to compound MIC for multidrug-resistant Staphylococcus aureus isolate 1. The format is functional.

`C[C@H]1COc2c(N3CCN(C)CC3)c(F)cc3c(=O)c(C(=O)NCCCCCCCCCNC(=O)c4cn5c6c(c(N7CCN(C)CC7)c(F)cc6c4=O)OC[C@@H]5C)cn1c23`: the IC50 in the series with PC-3 turned out to be 200 nM; in the series with LoVo it was 200 nM; in the series on MCF7 it was 200 nM; with A549, 200 nM; in series [6], 2500 nM; in [7] it was 200 nM. Further, the MBC in the series on Staphylococcus aureus [1] was found to be 31.2 µM (≈ 26.4 µg/mL); in the series on Enterococcus hirae it was 31.2 µM (≈ 26.4 µg/mL); against Escherichia coli, 3.9 µM (≈ 3.3 µg/mL); in the series on Pseudomonas aeruginosa it was 250 µM (≈ 211 µg/mL). For the same molecule, the MIC with Staphylococcus aureus [1] worked out at 31.2 µM (≈ 26.4 µg/mL); in the series on Enterococcus hirae, 31.2 µM (≈ 26.4 µg/mL); in the series with Escherichia coli, 3.9 µM (≈ 3.3 µg/mL); in [6] it was 5 µM (≈ 4.23 µg/mL); with Pseudomonas aeruginosa, 62.5 µM (≈ 52.8 µg/mL). The “growth inhibition (GI)” value in [2] was “inactive”. The solubility entry in series [3] is recorded as “soluble”. Also, the inhibition of growth at 1 µM in series [4] was determined as 20%. The inhibition of growth at 10 µM in series [5] is 60%.
Consider `CCCCOC(=O)N1CCN(c2cc3c(cc2F)c(=O)c(C(=O)O)cn3C2CC2)CC1`, for which the MBC was 0.12 µM (≈ 0.0518 µg/mL) in the series with Staphylococcus aureus [8]; 0.12 µM (≈ 0.0518 µg/mL) in the series on Staphylococcus aureus [9]; ≤ 0.12 µM against Staphylococcus aureus [1]; 7.8 µM (≈ 3.37 µg/mL) in the series with Enterococcus hirae; 31.2 µM (≈ 13.5 µg/mL) with Staphylococcus aureus [11]; 31.2 µM (≈ 13.5 µg/mL) in the series with Escherichia coli. Besides, the MBC against Staphylococcus aureus [12] was found to be 500 µM (≈ 216 µg/mL); with Pseudomonas aeruginosa it was 250 µM (≈ 108 µg/mL). The MIC was 0.03 µM (≈ 0.0129 µg/mL) against Staphylococcus aureus [9]; ≤ 0.06 µM against Staphylococcus aureus [1]; 3.9 µM (≈ 1.68 µg/mL) in the series on Enterococcus hirae; 31.2 µM (≈ 13.5 µg/mL) against Staphylococcus aureus [11]; 7.8 µM (≈ 3.37 µg/mL) against Escherichia coli; 62.5 µM (≈ 27 µg/mL) in the series on Staphylococcus aureus [12]. In addition, inhibition of growth against Pseudomonas aeruginosa (MIC) required 62.5 µM (≈ 27 µg/mL). Also, in the series on Staphylococcus aureus [10], the Ratio was 63. Also, in series [2], the “growth inhibition (GI)” value is “inactive”. Moreover, the IC50 in series [7] amounted to 31000 nM.
On to `CCCC(=O)OCC(=O)N1CCN(c2cc3c(cc2F)c(=O)c(C(=O)O)cn3C2CC2)CC1`, for which the MBC was 0.12 µM (≈ 0.0551 µg/mL) against Staphylococcus aureus [8]; 0.97 µM (≈ 0.446 µg/mL) in the series with Staphylococcus aureus [9]; ≤ 0.48 µM against Staphylococcus aureus [1]; ≤ 0.97 µM in the series with Enterococcus hirae; 15.6 µM (≈ 7.17 µg/mL) in the series with Staphylococcus aureus [11]; 31.2 µM (≈ 14.3 µg/mL) with Escherichia coli. For the same molecule, the MBC turned out to be 62.5 µM (≈ 28.7 µg/mL) against Staphylococcus aureus [12] and 250 µM (≈ 115 µg/mL) in the series with Pseudomonas aeruginosa. The MIC in the series on Staphylococcus aureus [8] is 0.06 µM (≈ 0.0276 µg/mL); against Staphylococcus aureus [9], 0.48 µM (≈ 0.221 µg/mL); against Staphylococcus aureus [1] it was ≤ 0.24 µM; with Enterococcus hirae it was ≤ 0.97 µM; in the series with Staphylococcus aureus [11] it was 15.6 µM (≈ 7.17 µg/mL); in the series on Escherichia coli it was 31.2 µM (≈ 14.3 µg/mL). Further, the MIC is 15.6 µM (≈ 7.17 µg/mL) in the series with Staphylococcus aureus [12] and 62.5 µM (≈ 28.7 µg/mL) against Pseudomonas aeruginosa. Also, the Ratio in the series on Staphylococcus aureus [13] and in the series on Staphylococcus aureus [14] was 2 each time. For the same molecule, the “growth inhibition (GI)” value in [2] was “inactive”.
Take `O=C(O)c1cn(C2CC2)c2cc(N3CCN(C(=O)CCCCCCCCCCCCCC(=O)N4CCN(c5cc6c(cc5F)c(=O)c(C(=O)O)cn6C5CC5)CC4)CC3)c(F)cc2c1=O`: the MBC against Staphylococcus aureus [8] was 0.48 µM (≈ 0.432 µg/mL); with Staphylococcus aureus [9] it was 0.97 µM (≈ 0.872 µg/mL); against Staphylococcus aureus [1], 1.9 µM (≈ 1.71 µg/mL); with Enterococcus hirae it was 500 µM (≈ 450 µg/mL); against Staphylococcus aureus [11], 31.2 µM (≈ 28.1 µg/mL); in the series on Escherichia coli, 500 µM (≈ 450 µg/mL). In addition, the MBC was 500 µM (≈ 450 µg/mL) in the series on Staphylococcus aureus [12] and 250 µM (≈ 225 µg/mL) in the series on Pseudomonas aeruginosa. The MIC in the series on Staphylococcus aureus [8] is 0.06 µM (≈ 0.0539 µg/mL); against Staphylococcus aureus [9], 0.06 µM (≈ 0.0539 µg/mL); in the series with Staphylococcus aureus [1] it was ≤ 0.06 µM; in the series with Enterococcus hirae, 125 µM (≈ 112 µg/mL); with Staphylococcus aureus [11], 15.6 µM (≈ 14 µg/mL); against Escherichia coli it was 62.5 µM (≈ 56.2 µg/mL). The results for the MIC against Staphylococcus aureus [12] and with Pseudomonas aeruginosa were 1.9 µM (≈ 1.71 µg/mL) and 62.5 µM (≈ 56.2 µg/mL), respectively. Further, in the series on Staphylococcus aureus [10], the Ratio stood at 8. Further, the “growth inhibition (GI)” value in series [2] is “inactive”. The inhibition of growth at 10 µM in [5] is 40%.
Consider `C[C@H]1COc2c(N3CCN(C)CC3)c(F)cc3c(=O)c(C(=O)O)cn1c23` [LEVOFLOXACIN], for which the IC50 in the series on PC-3 was 67000 nM; with MCF7, 67000 nM; in the series on A549 it was 67000 nM; in series [6], 800 nM; in series [7] it was 67000 nM. Besides, the MBC with Staphylococcus aureus [1] is ≤ 0.97 µM; against Enterococcus hirae it was 1.9 µM (≈ 0.687 µg/mL); with Escherichia coli, ≤ 0.97 µM; in the series on Pseudomonas aeruginosa, ≤ 0.97 µM. Moreover, the MIC against Staphylococcus aureus [1] was ≤ 0.97 µM; with Enterococcus hirae, ≤ 0.97 µM; in the series with Escherichia coli, ≤ 0.97 µM; in series [6], 2.5 µM (≈ 0.903 µg/mL); in the series with Pseudomonas aeruginosa it was ≤ 0.97 µM. The “growth inhibition (GI)” value in series [2] was “inactive”. Further, the inhibition of growth at 1 µM in series [4] came to 85%. Besides, the inhibition of growth at 10 µM in [5] was determined as 96%.

What is called IC50 is the point on the concentration scale where inhibition reaches its midpoint. Read a low IC50 as greater potency in that assay. By MBC is commonly meant the lowest tested concentration that kills the bacteria rather than only halting them. Low readings indicate greater bactericidal potency, high ones weaker bactericidal potency. What is called MIC is the least concentration at which growth counts as inhibited. The low end stands for greater potency, the high end for weaker potency.
